Laboratory results from US8946397B1, “Tagged nucleosides that leave no scar upon cleavage” (priority 2011, dated 2015).
Like-named read-outs stand apart in the source and are kept apart here.

Experiments:
[1] = cited from earlier work
Bst DNA polymerases = molecular target: T1, Bst DNA polymerases (Geobacillus stearothermophilus, UniProt P52026); test: Standing start primer-extension assay; type: biochemical; conditions: 30 min incubation, triphosphate 100 μM, Template AA
T1 sequence (P52026 1-876): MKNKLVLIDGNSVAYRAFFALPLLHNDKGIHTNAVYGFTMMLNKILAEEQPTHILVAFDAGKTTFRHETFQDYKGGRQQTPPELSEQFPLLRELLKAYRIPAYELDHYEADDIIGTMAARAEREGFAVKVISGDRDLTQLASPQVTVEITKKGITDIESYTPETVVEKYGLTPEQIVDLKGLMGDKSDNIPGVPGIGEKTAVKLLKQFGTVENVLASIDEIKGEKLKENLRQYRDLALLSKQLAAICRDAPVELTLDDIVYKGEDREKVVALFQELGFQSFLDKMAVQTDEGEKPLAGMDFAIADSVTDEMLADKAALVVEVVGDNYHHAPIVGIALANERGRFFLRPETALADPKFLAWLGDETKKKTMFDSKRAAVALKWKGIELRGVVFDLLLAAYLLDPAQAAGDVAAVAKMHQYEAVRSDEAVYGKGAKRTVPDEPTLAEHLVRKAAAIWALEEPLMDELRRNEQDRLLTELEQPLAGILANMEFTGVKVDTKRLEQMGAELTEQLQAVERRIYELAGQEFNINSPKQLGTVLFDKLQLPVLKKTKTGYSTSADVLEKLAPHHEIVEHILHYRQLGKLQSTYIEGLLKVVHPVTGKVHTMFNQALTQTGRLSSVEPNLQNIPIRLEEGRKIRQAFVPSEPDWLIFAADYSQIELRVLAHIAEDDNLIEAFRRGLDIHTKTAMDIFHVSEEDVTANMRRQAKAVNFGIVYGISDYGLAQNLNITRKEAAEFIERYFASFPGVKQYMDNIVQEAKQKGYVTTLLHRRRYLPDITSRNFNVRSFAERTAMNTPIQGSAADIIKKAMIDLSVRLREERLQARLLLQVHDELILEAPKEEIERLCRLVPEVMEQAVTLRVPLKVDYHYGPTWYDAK
Procedure: (§1) Thirteen DNA polymerases and reverse transcriptases performing well last time were tested again for their abilities to incorporate the triphosphate carrying a Bodipy 576/589 fluor (FIG. 6). The incubation time was extended to 30 min to see the boundaries for the enzymes to still consume all the primer s without leading to N+2 bands.
(§2) Gamma-^32P-labeled primer (2.5 pmol), cold primer (22.5 pmol) and template (30 pmol) were annealed by incubation at 95° C. for 5 min in various reaction buffer and slowly cooled to room temperature, followed by the addition of various DNA polymerase and reverse transcriptases. The extension was initiated by adding MJK's nucleoside triphosphates (MJ-008-065) (final concentration of 100 μM). After 30 min, the reaction was quenched by 10 mM EDTA in formamide loading buffer (20 μL); products were resolved by 14% PAGE.

Deep Vent (exo-) = Deep Vent (exo-) (Pyrococcus sp., UniProt Q51334, D141A/DEL493-1029/E143A); test: Standing start primer-extension assay; type: biochemical; conditions: 30 min incubation, triphosphate 100 μM, Template AA
Deep Vent (exo-), sequence (Q51334 other isoform, or with tags, fused parts or gaps D141A/E143A/DEL493-1029): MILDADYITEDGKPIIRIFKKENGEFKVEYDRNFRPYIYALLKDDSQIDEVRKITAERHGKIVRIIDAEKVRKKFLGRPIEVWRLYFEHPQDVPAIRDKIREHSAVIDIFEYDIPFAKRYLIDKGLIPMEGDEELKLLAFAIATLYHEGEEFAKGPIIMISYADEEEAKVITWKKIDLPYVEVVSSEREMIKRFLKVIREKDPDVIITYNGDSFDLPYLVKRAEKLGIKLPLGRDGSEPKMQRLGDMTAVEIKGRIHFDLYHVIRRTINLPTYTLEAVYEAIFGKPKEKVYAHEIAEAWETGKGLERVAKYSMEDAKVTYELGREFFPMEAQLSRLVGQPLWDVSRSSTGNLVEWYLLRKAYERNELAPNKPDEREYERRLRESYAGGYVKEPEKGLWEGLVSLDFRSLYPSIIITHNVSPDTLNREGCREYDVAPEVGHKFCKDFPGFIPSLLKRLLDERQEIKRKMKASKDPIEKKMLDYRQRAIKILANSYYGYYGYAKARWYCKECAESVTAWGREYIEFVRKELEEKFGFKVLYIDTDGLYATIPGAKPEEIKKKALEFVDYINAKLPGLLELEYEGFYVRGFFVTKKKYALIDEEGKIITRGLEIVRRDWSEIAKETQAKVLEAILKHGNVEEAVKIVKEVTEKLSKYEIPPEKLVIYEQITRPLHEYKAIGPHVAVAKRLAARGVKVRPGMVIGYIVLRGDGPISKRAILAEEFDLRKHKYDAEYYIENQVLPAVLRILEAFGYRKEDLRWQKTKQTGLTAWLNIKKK
Procedure: as §1, §2

[2] = test system: DNA polymerases and reverse transcriptases; test: Standing start primer-extension assay; type: biochemical
Procedure: FIG. 8. […] Subsequent removal of the side chain allows primer extension to continue. […] Incubation is for 2 min with the template primer combination.
as §1, §2

[3] = Elimination of scar from triphosphate-aldehyde, analyzed by ion-exchange HPLC; type: physicochemical; conditions: 55° C.
Procedure: To develop the reagents for elimination of scar triphosphate-aldehyde which was obtained from the treatment of compound 17 with 10 mM NaIO4 was used as model compound. A variety of conditions were explored that might eliminate the scar and the reaction was analyzed by ion-exchange HPLC (buffer A: water; buffer B: 1M NH4HCO3; gradient 0˜35% B over 20 min).

Compound: O=c1[nH]cnc2c([C@@H]3O[C@H](CO)[C@@H](O)[C@H]3O)n[nH]c12 [formycin B]
- pKa ([1]; deprotonation of N7): 10.4

Compound: BODIPY 576/589 Labeled 1-(5-amino-3,4-dihydroxypentyl)-2′-deoxy-pseudouridine-5′-triphosphate [Compound 18]
- N+2 products (Bst DNA polymerases): only trace amount
- N+2 products (Deep Vent (exo-)): only trace amount
- extension of a primer on a template calling for two consecutive T analogs ([2]; 2 min incubation, no 3′-ONH2 group (FIG. 8)): stops with certain of the indicated polymerases after the addition of one T analog
- consume all the primer without leading to N+2 bands ([2]; thirteen enzymes, 30 min incubation, triphosphate 100 μM, Template AA): most of the polymerases and reverse transcriptases might achieve this goal

Compound: Nc1ncc([C@@H]2O[C@H](CO)[C@@H](O)[C@H]2O)c(=O)[nH]1 [pseudoisocytidine]
- pKa ([1]; deprotonation of N3): 9.0

Compound: O=c1[nH]cc([C@@H]2O[C@H](CO)[C@@H](O)[C@H]2O)c(=O)[nH]1 [pseudouridine]
- pKa ([1]; cite of deprotonation unclear): 9.1

Compound: Nc1ncnc2c([C@@H]3O[C@H](CO)[C@@H](O)[C@H]3O)[nH]nc12 [formycin A]
- pKa ([1]; deprotonation of N7): 9.6

Compound: O=CCCn1cc([C@H]2C[C@H](O)[C@@H](COP(=O)(O)OP(=O)(O)OP(=O)(O)O)O2)c(=O)[nH]c1=O [triphosphate-aldehyde]
- % Product ([3]; A: 100 mM glycine, pH 9.0, 10 min): 13%
- % Product ([3]; A: 100 mM glycine, pH 9.0, 20 min): 20%
- % Product ([3]; A: 100 mM glycine, pH 9.0, 30 min): 30%
- % Product ([3]; A: 100 mM glycine, pH 10.0, 10 min): 35%
- % Product ([3]; A: 100 mM glycine, pH 10.0, 20 min): 70%
- % Product ([3]; A: 100 mM glycine, pH 10.0, 30 min): 87%
- % Product ([3]; A: 100 mM glycine, pH 11.0, 10 min): 18%
- % Product ([3]; A: 100 mM glycine, pH 11.0, 20 min): 52%
- % Product ([3]; A: 100 mM glycine, pH 11.0, 30 min): 92%
- % Product ([3]; B: 500 mM morpholine, pH 9.0, 10 min): 73%
- % Product ([3]; B: 500 mM morpholine, pH 9.0, 20 min): 98%
- % Product ([3]; B: 500 mM morpholine, pH 10.0, 10 min): 70%
- % Product ([3]; B: 500 mM morpholine, pH 10.0, 20 min): 98%
- % Product ([3]; B: 500 mM morpholine, pH 10.5, 10 min): 50%
- % Product ([3]; B: 500 mM morpholine, pH 10.5, 20 min): 92%
- % Product ([3]; B: 500 mM morpholine, pH 10.5, 30 min): 99%
- % Product ([3]; B: 500 mM morpholine, pH 11.2, 10 min): 40%
- % Product ([3]; B: 500 mM morpholine, pH 11.2, 20 min): 80%
- % Product ([3]; B: 500 mM morpholine, pH 11.2, 30 min): 94%
- % Product ([3]; C: 100 mM pyrrolidine, pH 9.0, 5 min): 32%
- % Product ([3]; C: 100 mM pyrrolidine, pH 9.0, 10 min): 67%
- % Product ([3]; C: 100 mM pyrrolidine, pH 10.0, 5 min): 90%
- % Product ([3]; C: 100 mM pyrrolidine, pH 10.0, 10 min): 99%
- % Product ([3]; C: 100 mM pyrrolidine, pH 11.0, 5 min): 99%
- % Product ([3]; C: 100 mM pyrrolidine, pH 11.0, 10 min): 99%
